The structures appear in SMILES notation. pIC50: −log10 of the molar value.

One may read the pIC50 as −log10 of the IC50, conventionally taken in molar units.

T1 sequence (P14902 whole entry): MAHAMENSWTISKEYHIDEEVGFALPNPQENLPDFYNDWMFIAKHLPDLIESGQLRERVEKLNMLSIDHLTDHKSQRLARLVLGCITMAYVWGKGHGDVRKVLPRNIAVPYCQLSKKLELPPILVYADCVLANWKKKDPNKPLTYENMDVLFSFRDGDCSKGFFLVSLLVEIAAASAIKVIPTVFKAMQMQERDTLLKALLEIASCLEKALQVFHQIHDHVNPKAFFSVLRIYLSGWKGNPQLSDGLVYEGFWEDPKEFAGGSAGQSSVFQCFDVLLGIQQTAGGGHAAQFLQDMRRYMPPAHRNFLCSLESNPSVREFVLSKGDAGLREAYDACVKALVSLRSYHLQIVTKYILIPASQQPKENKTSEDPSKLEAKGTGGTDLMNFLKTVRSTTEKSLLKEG

The first experiment deals with T1, IDO1 (Homo sapiens, UniProt P14902). Description: IDO1 Human Whole Blood Assay. The note with it: human whole blood stimulated with LPS and IFNγ 100 ng/mL, 18 h, kynurenine by LC/MS/MS. Also on record: Human whole blood was drawn in sodium heparin coated tubes from healthy internal donors; from tissue; host or cells: human whole blood from healthy donors, stimulated with LPS and IFNγ. The experiment is classed as cell-based. How it is done:
IDO1 Human Whole Blood Assay
Compounds to be tested were serially diluted in ten 3-fold steps in DMSO starting from 10 mM. 3 μL of compound dilutions or DMSO alone were then dispensed from the dilution plate into a polypropylene 96-well assay plate containing 97 μL of RPMI medium using an Echo 555 acoustic liquid handler (Labcyte). LPS and IFNγ were prepared in RPMI medium to a 10× of final conc. (1000 ng/mL), final concentration is 100 ng/mL.
Human whole blood was drawn in sodium heparin coated tubes from healthy internal donors. Two hundred forty μL of blood was transferred to each of the wells of a v-bottom 96 well plate. Thirty μL of compound was transferred from intermediate dilution plate, and incubated for 15 min. Thirty μL from stimulants was then transferred to blood and mixed thoroughly. Plate was covered with breathable membrane and incubated at 37° C. for overnight (18 h).
On day 2 isotope labeled standard of kynurenine and tryptophan was made in water at 10× concentration and 30 μL was added to the blood at 3 μM final concentration. […] Twenty μL of supernatant was carefully transferred to a 384 well plate containing 40 μL of 0.1% formic acid in water and analyzed by LC/MS/MS.
LC/MS/MS analyses were performed using Thermo Fisher's LX4-TSQ Quantum Ultra system. […] Compounds were titrated and IC50's were calculated by 4 parameter sigmoidal curve fitting formula.
Take `O=C(Nc1ccc(Cl)cc1)C1CCC2CC1CCC2c1ccnc2ccc(F)cc12` (single isomer, unassigned) [Example 1, N-(4-chlorophenyl)-6-(6-fluoroquinolin-4-yl)bicyclo[3.3.1]nonane-2-carboxamide]: the pIC50 was 6.51.

The next experiment addresses T1, IDO1. Description: IDO1 Cellular Assay in Hela Cells Stimulated with IFNγ. The experiment is classed as cell-based. Particulars: 100 ng/mL IFNγ, 300 uM L-tryptophan, about 48 hours, fluorescence readout. On the procedure: IDO1 Cellular Assay in Hela Cells Stimulated with IFNγ
Hela cells were cultured in complete Hela culture medium (90% EMEM, 10% heat-inactivated fetal bovine serum) and expanded to about 1×10^9 cells. The cells were then collected and frozen down at 1×10^7 cells/vial in 1 mL frozen medium (90% complete Hela culture medium, 10% DMSO)
Compounds to be tested were serially diluted in ten 3-fold steps in DMSO starting from 10 mM DMSO stocks in Echo low volume plate(s). Compound dilutions or DMSO alone were then dispensed from the dilution plate(s) into Greiner black 384-well assay plate(s) (catalog #781086, 50 nL/well) using an Echo 550 acoustic liquid handler (Labcyte).
Frozen Hela cells were thawed and transferred into Hela assay medium (99% complete Hela culture medium, 1% Pen/Strep) with 20 mL medium/vial of cells. The cells were spun down at 250 g in a table top centrifuge for 5 min and suspended in same volume of Hela assay medium. The cells were then counted and adjusted to a density of 2×10^5 cells/ml in Hela assay medium. Sterile L-tryptophan were added to the cells with final concentration of 300 uM L-tryptophan. A small aliquot (2 mL/plate) of Hela cells were set aside and were not treated with IFNγ, to serve as the Max-E control.
Hela cells with and without IFNγ were dispensed to the respective wells of 384-well assay plates containing the compounds. The plates were incubated for about 48 hours at a 37° C., 5% CO2 incubator. Afterwards, 12 μL of 0.5 M methyl isonipecotate in dimethyl sulfoxide were added into each well and the plates were sealed and incubated at 37° C. without CO2 overnight. The plates were centrifuged for 1 min at 200×g. The resulting fluorescence was measured in a Spectramax plate reader (Molecular Devices) with a 400 nm excitation filter and a 510 nm emission filter.
The fluorescence intensity of each well was corrected for the background observed in wells with non-IFNγ-treated cells and was expressed as a fraction of the intensity observed in wells of IFNγ-treated cells and DMSO only. Potencies were calculated by linear least squares fit to the four parameter logistic IC50 equation.
`O=C(Nc1ccc(Cl)cc1)C1CCC2CC1CCC2c1ccnc2ccc(F)cc12` (single isomer, unassigned) [Example 1, N-(4-chlorophenyl)-6-(6-fluoroquinolin-4-yl)bicyclo[3.3.1]nonane-2-carboxamide] showed a pIC50 of 8.70.

For `O=C(Nc1ccc(Cl)cc1)C1CCC2CC1CCC2c1ccnc2ccc(F)cc12` (single isomer, unassigned) [Example 2, N-(4-chlorophenyl)-6-(6-fluoroquinolin-4-yl)bicyclo[3.3.1]nonane-2-carboxamide], the pIC50 was 6.59.

`O=C(Nc1ccc(Cl)cc1)C1CCC2CC1CCC2c1ccnc2ccc(F)cc12` (single isomer, unassigned) [Example 3, N-(4-chlorophenyl)-6-(6-fluoroquinolin-4-yl)bicyclo[3.3.1]nonane-2-carboxamide]: the pIC50 was 6.90.

Compound `O=C(Nc1ccc(Cl)cc1)C1CCC2CC1CCC2c1ccnc2ccc(F)cc12` (single isomer, unassigned) [Example 4, N-(4-chlorophenyl)-6-(6-fluoroquinolin-4-yl)bicyclo[3.3.1]nonane-2-carboxamide] showed a pIC50 of 5.60.

Regarding `O=C(NC1CCC2CC1CCC2c1ccnc2ccc(F)cc12)c1ccc(Cl)cc1` (single isomer, unassigned) [Example 5, 4-Chloro-N-(6-(6-fluoroquinolin-4-yl)bicyclo[3.3.1]nonan-2-yl)benzamide], the pIC50 was 6.11.

The compound `O=C(NC1CCC2CC1CCC2c1ccnc2ccc(F)cc12)c1ccc(Cl)cc1` (single isomer, unassigned) [Example 6, 4-Chloro-N-(6-(6-fluoroquinolin-4-yl)bicyclo[3.3.1]nonan-2-yl)benzamide] gave a pIC50 of 5.79.

On to `O=C(NC1CCC2CC1CCC2c1ccnc2ccc(F)cc12)c1ccc(Cl)cc1` (single isomer, unassigned) [Example 7, 4-Chloro-N-(6-(6-fluoroquinolin-4-yl)bicyclo[3.3.1]nonan-2-yl)benzamide], for which the pIC50 was 7.60.

The compound `O=C(NC1CCC2CC1CCC2c1ccnc2ccc(F)cc12)c1ccc(Cl)cc1` (single isomer, unassigned) [Example 8, 4-Chloro-N-(6-(6-fluoroquinolin-4-yl)bicyclo[3.3.1]nonan-2-yl)benzamide] gave a pIC50 of 5.60.
